Measured values reported in publication PMC6471485, “Selective Inhibitors of a Human Prolyl Hydroxylase (OGFOD1) Involved in Ribosomal Decoding” (Chemistry (Weinheim an Der Bergstrasse, Germany), 2019).

What was measured:
PHD2 = biological target: T1, PHD2 (Homo sapiens, UniProt Q9GZT9); assay: 2OG displacement from PHD2 by CPMG-edited 1H NMR; format: binding; conditions: 10 µM 2OG, 10 µM PHD2, 70 µM inhibitor
T1 construct: 181-426 or OGFOD1
Experimental: total echo time of 40 ms, a relaxation delay of 2 s, with 256 scans. Water suppression was achieved by presaturation. Samples contained 30 µM apo-PHD2181-426 or OGFOD1, supplemented with 60 µM Zn(II), 30 µM of inhibitor, all in 50 mM Tris-d11, pH 7.5, 10 % D2O, […]
wLOGSY Binding Experiments: For water-ligand observed gradient spectroscopy (wLOGSY) analyses, typical experimental parameters were the following: mixing time, 1 s; relaxation delay, 2 s; number of transients, 512. Solvent excitation was achieved using a 16-ms 180° selective rectangular shape pulse with 1,000 points (Squa100.1000) set at the H2O frequency. […]
Competition Experiments by 2OG Displacement: 2OG displacement assays[12] were performed using CPMG-edited 1H spectra. […] The 2OG methylene resonance at 2.35 ppm was monitored. […]
HeLa cells were cultured in DMEM media supplemented with 10 % fetal bovine serum, 4 mM L-glutamine, 100 U/mL penicillin, and 100 µg/mL streptomycin. […] Cell extracts were analyzed by SDS-PAGE, electroblotted onto PVDF membranes (Millipore) and probed with anti-HIF-1α antibody (clone 54, BD Transduction Laboratories) at 1:1000 dilution for 1 h at room temperature. […] Target proteins were detected with SuperSignal Chemiluminescent […]
Figure S15. Single-concentration qualitative 2OG displacement as monitored by CPMG-edited 1H NMR spectroscopy. […]

Ofd1 = biological target: T2, Ofd1 (Schizosaccharomyces pombe, UniProt Q11120); assay: Ofd1 inhibition assay (Figure S12); format: biochemical, yeast; conditions: Ofd1 1 µM (Figure S12)
T2 sequence (Q11120 1-515): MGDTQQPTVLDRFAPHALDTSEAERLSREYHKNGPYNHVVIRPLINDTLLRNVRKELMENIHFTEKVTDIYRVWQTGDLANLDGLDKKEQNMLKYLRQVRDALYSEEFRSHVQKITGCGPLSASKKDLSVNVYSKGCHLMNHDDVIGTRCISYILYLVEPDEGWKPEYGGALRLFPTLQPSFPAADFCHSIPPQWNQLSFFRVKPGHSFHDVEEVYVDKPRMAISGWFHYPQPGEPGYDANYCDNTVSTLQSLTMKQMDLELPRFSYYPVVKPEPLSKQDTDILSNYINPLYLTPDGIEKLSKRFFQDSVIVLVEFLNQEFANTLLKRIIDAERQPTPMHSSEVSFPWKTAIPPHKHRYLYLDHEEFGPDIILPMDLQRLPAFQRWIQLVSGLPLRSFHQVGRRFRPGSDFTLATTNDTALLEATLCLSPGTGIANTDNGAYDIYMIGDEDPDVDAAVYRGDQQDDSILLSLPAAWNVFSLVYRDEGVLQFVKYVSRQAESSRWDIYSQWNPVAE

T1 sequence (Q9GZT9 181-426 limits assumed): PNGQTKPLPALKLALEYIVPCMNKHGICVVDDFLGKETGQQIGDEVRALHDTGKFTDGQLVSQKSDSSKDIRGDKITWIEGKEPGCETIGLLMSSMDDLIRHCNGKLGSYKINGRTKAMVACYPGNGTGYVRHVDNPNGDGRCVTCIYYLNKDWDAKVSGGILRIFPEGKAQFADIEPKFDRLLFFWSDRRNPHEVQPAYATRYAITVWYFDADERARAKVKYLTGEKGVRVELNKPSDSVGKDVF

| Structure (SMILES) | displacement of bound 2OG from PHD2, in words (PHD2) | inhibition of Ofd1, in words (Ofd1) | melting point [°C] |
| --- | --- | --- | --- |
| Cn1c(O)c(C(=O)CCc2ccccc2)c(=O)n(C)c1=O [compound 26] | not from that of PHD2 | potently inhibit |  |
| Cn1c(O)c(C(=O)CCc2cccs2)c(=O)n(C)c1=O [compound 42] | not from that of PHD2 | potently inhibit | 91 |
